Each structure is given as a SMILES string.

The first experiment concerns the target T1, hP2Y14R (Homo sapiens, UniProt Q15391).
T1 construct: expressed in transfected cells
T1 sequence (Q15391 1-338): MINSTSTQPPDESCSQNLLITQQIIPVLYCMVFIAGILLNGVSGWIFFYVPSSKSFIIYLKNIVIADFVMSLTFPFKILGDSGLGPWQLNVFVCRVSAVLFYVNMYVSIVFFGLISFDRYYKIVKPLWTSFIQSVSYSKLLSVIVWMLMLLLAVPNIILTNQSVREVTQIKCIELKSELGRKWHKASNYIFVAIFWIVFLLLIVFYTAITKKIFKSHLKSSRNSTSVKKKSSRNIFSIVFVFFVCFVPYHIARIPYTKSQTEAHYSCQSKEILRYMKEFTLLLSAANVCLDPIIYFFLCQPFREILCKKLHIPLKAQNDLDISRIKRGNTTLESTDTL
Kind of experiment: Competitive fluorescent binding assay, flow cytometry of whole hP2Y14R-CHO cells. Particulars: Table 1; hP2Y14R-CHO cells, fluorescent antagonist tracer 20 nM, mean ± SEM (n = 3-5); read-out: IC50. As for the experimental part:
Cell Culture: Chinese hamster ovary cells stably expressing the hP2Y14—R (CHO-hP2Y14R) were grown in Dulbecco's Modified Eagle's Medium (DMEM)/Ham's F12 (F12) 1:1 supplemented with 10% FBS, 100 units/mL penicillin, […] streptomycin, 2 mM L-glutamine and 0.500 mg/mL G418 Sulfate (Geneticin). Cells were maintained in a humidified atmosphere and sterile incubation conditions held at 37° C. and 5% CO2 (g).
Competitive Assay: Competitive fluorescent assays were performed on a BD FACSCalibur flow cytometer in conjunction with the softwares BD Bioscience PlateManager and CellQuest. All cell culture growth and assays for this procedure were conducted on flat-bottom 96-well plates. CHO-hP2Y14R cells were grown to approximately 80-90% confluency prior to assays. The 96-well plate format enabled four compounds to be analyzed in triplicate per run. All unlabeled ligand compounds are stored as 5 mM stock solutions in dimethyl sulfoxide (DMSO). Serial dilutions of each compound were prepared in complete medium. Cells were initially incubated with unlabeled compounds for 30 min at 37° C. and 5% CO2 (g). […] After three consecutive washes in sterile 1× Dulbecco's Phosphate Buffered Saline (DPBS) minus Ca^2+/Mg^2+, cells were detached from the plate using Corning Cellstripper™ to reduce damaging the hP2Y14R protein. Final cell suspensions for flow cytometry was in DPBS minus Ca^2+/Mg^2+.
IC50 values were determined from the gathered data with the program GraphPad Prism version 7.0.
For orientation: Flow cytometry measures light scatter and fluorescence of single cells or particles in a stream.
For orientation: IC50 means the concentration that gives 50% inhibition. As to `CN1CCC(c2ccc(-c3cc(C(=O)O)cc4cc(-c5ccc(C(F)(F)F)cc5)ccc34)cc2)CC1` [Compound 5, 4-(4-(1-Methylpiperidin-4-yl)phenyl)-7-(4-(trifluoromethyl)phenyl)-2-naphthoic acid], the IC50 was 195 ± 120 nM. In the case of `C#CCN1CCC(c2ccc(-c3cc(C(=O)O)cc4cc(-c5ccc(C(F)(F)F)cc5)ccc34)cc2)CC1` [Compound 6, 4-(4-(1-(Prop-2-yn-1-yl)piperidin-4-yl)phenyl)-7-(4-(trifluoromethyl)phenyl)-2-naphthoic acid], the IC50 was 139 ± 19 nM. With `CCCN1CCC(c2ccc(-c3cc(C(=O)O)cc4cc(-c5ccc(C(F)(F)F)cc5)ccc34)cc2)CC1` [Compound 7, 4-(4-(1-Propylpiperidin-4-yl)phenyl)-7-(4-(trifluoromethyl)phenyl)-2-naphthoic acid], the 50% inhibitory concentration (IC50) was determined as 133 ± 111 nM. Regarding `CCCCCCN1CCC(c2ccc(-c3cc(C(=O)O)cc4cc(-c5ccc(C(F)(F)F)cc5)ccc34)cc2)CC1` [Compound 9, 4-(4-(1-Hexylpiperidin-4-yl)phenyl)-7-(4-(trifluoromethyl)phenyl)-2-naphthoic acid], the IC50 stood at 131 ± 11 nM. Same read-out and setting: for `CC(C)(C)OC(=O)N1CCC(c2ccc(-c3cc(C(=O)O)cc4cc(-c5ccc(C(F)(F)F)cc5)ccc34)cc2)CC1` [Compound 10, 4-(4-(1-(tert-butoxycarbonyl)piperidin-4-yl)phenyl)-7-(4-(trifluoromethyl)phenyl)-2-naphthoic acid] the value was 2440 ± 1540 nM. For the compound `NCCOCCOCCOCCOCCOCCOCCC(=O)N1CCC(c2ccc(-c3cc(C(=O)O)cc4cc(-c5ccc(C(F)(F)F)cc5)ccc34)cc2)CC1` [Compound 12, 4-(4-(1-(1-Amino-3,6,9,12,15,18-hexaoxahenicosan-21-oyl)piperidin-4-yl)phenyl)-7-(4-(trifluoromethyl)phenyl)-2-naphthoic acid], the IC50 was 963 ± 417 nM.

Take `NC(=O)c1cc(-c2ccc(C3CCNCC3)cc2)cc(-n2cc(-c3ccc(C(F)(F)F)cc3)nn2)c1` [Compound 15, 4′-(Piperidin-4-yl)-5-(4-(4-(trifluoromethyl)phenyl)-1H-1,2,3-triazol-1-yl)-[1,1′-biphenyl]-3-carboxamide]: the IC50 was above 100000 nM.

As to `N#Cc1cc(-c2ccc(C3CCNCC3)cc2)cc(-n2cc(-c3ccc(C(F)(F)F)cc3)nn2)c1` [Compound 16, 4′-(Piperidin-4-yl)-5-(4-(4-(trifluoromethyl)phenyl)-1H-1,2,3-triazol-1-yl)-[1,1′-biphenyl]-3-carbonitrile], the IC50 was found to be 42100 ± 8400 nM. Consider `O=C(O)c1cc(-c2ccc(C34CCN(CC3)CC4)cc2)c2ccc(-c3ccc(C(F)(F)F)cc3)cc2c1` [Compound 17, 4-(4-(Quinuclidin-4-yl)phenyl)-7-(4-(trifluoromethyl)phenyl)-2-naphthoic acid], for which the IC50 came to 20 ± 4.4 nM.

As to `O=C(O)c1cc(-c2ccc(C34CCNCC3C4)cc2)cc(-n2cc(-c3ccc(C(F)(F)F)cc3)nn2)c1` (stereo not shown) [Compound 18, 4′-(3-Azabicyclo[4.1.0]heptan-6-yl)-5-(4-(4-(trifluoromethyl)phenyl)-1H-1,2,3-triazol-1-yl)-[1,1′-biphenyl]-3-carboxylic acid], the IC50 was around 400 nM.

The same experiment, now with this note: Table 2; hP2Y14R-CHO cells, fluorescent antagonist tracer 20 nM, mean ± SEM (n = 3-5); read-out: IC50.
In the case of `NC(=O)c1ccc(-c2cc(C(=O)O)cc(-c3cn(-c4ccc(C(F)(F)F)cc4)nn3)c2)cc1` [Compound 24, 4′-Carbamoyl-5-(1-(4-(trifluoromethyl)phenyl)-1H-1,2,3-triazol-4-yl)-[1,1′-biphenyl]-3-carboxylic acid], the IC50 is 1680 ± 380 nM.

On to `O=C(O)c1cc(-c2ccc(C3CCNCC3)cc2)cc(-c2cn(-c3ccc(C(F)(F)F)cc3)nn2)c1` [Compound 25, 4′-(Piperidin-4-yl)-5-(1-(4-(trifluoromethyl)phenyl)-1H-1,2,3-triazol-4-yl)-[1,1′-biphenyl]-3-carboxylic acid], for which the IC50 was 644 ± 175 nM. For `NCCCNC(=O)c1ccc(-c2cc(C(=O)O)cc(-c3cn(-c4ccc(C(F)(F)F)cc4)nn3)c2)s1` [Compound 26, 3-(5-((3-Aminopropyl)carbamoyl)thiophen-2-yl)-5-(1-(4-(trifluoromethyl)phenyl)-1H-1,2,3-triazol-4-yl)benzoic acid], the IC50 was determined as 2600 ± 560 nM. Take `NC(=O)c1ccc(-c2cc(NC(=O)c3ccc(C(F)(F)F)cc3)cc(C(=O)O)c2)cc1` [Compound 27, 4′-Carbamoyl-5-(4-(trifluoromethyl)benzamido)-[1,1′-biphenyl]-3-carboxylic acid]: the IC50 was found to be 3050 ± 210 nM. Regarding `NC(=O)c1ccc(-c2cc(C(=O)O)cc(C(=O)Nc3ccc(C(F)(F)F)cc3)c2)cc1` [Compound 29, 4′-Carbamoyl-5-((4-(trifluoromethyl)phenyl)carbamoyl)-[1,1′-biphenyl]-3-carboxylic acid], the IC50 is 6040 ± 810 nM. Turning to `O=C(O)c1[nH]c(-c2ccc(C3=CCNCC3)cc2)cc1-n1cc(-c2ccc(C(F)(F)F)cc2)nn1` [Compound 33, 5-(4-(1,2,3,6-Tetrahydropyridin-4-yl)phenyl)-3-(4-(4-(trifluoromethyl)phenyl)-1H-1,2,3-triazol-1-yl)-1H-pyrrole-2-carboxylic acid], the IC50 is above 100000 nM. As for `O=C(O)c1cc(-c2ccc(C3CCNCC3)cc2)c2nc(-c3ccc(C(F)(F)F)cc3)[nH]c2c1` [Compound 35, 4-(4-(Piperidin-4-yl)phenyl)-2-(4-(trifluoromethyl)phenyl)-1H-benzo[d]imidazole-6-carboxylic acid], the IC50 is above 100000 nM.

Still in this experiment, the particulars now being: Table 3 comparison column; values identical to Tables 1 and 2; read-out: hP2Y14R, IC50.
As to `O=C(O)c1cc(-c2ccc(N3CCNCC3)cc2)cc(-n2cc(-c3ccc(C(F)(F)F)cc3)nn2)c1` [Compound 4, 4′-(Piperazin-1-yl)-5-(4-(4-(trifluoromethyl)phenyl)-1H-1,2,3-triazol-1-yl)-[1,1′-biphenyl]-3-carboxylic acid], the IC50 stood at 233 ± 26 nM.

For the compound `O=C(O)c1cc(-c2ccc(C3CCNCC3)cc2)cc(-c2cn(-c3ccc(C(F)(F)F)cc3)nn2)c1` [Compound 25, 4′-(Piperidin-4-yl)-5-(1-(4-(trifluoromethyl)phenyl)-1H-1,2,3-triazol-4-yl)-[1,1′-biphenyl]-3-carboxylic acid], the IC50 amounted to 644 ± 175 nM.

Another experiment addresses T2, mP2Y14R (Mus musculus, UniProt Q9ESG6).
T2 construct: expressed in transfected cells; host or cells: HEK293 cells
T2 sequence (Q9ESG6 1-338): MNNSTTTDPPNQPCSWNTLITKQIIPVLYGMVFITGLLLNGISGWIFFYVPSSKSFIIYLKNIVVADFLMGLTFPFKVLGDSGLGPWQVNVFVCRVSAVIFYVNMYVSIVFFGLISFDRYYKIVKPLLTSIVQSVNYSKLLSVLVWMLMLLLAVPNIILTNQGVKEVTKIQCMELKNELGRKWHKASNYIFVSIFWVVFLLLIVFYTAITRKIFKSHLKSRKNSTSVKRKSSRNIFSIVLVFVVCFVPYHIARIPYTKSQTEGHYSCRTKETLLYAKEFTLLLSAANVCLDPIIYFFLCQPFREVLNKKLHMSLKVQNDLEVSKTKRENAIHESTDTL
The experiment is described as follows: Fluorescence binding method at mP2Y14R expressed in HEK293 cells. Particulars: Table 3.
From the text: This example compares inhibitory potency of antagonists at the mP2Y14R to the hP2Y14R expressed in HEK293 cells, using the fluorescence binding method.
For `O=C(O)c1cc(-c2ccc(N3CCNCC3)cc2)cc(-n2cc(-c3ccc(C(F)(F)F)cc3)nn2)c1` [Compound 4, 4′-(Piperazin-1-yl)-5-(4-(4-(trifluoromethyl)phenyl)-1H-1,2,3-triazol-1-yl)-[1,1′-biphenyl]-3-carboxylic acid], the IC50 was 499 ± 57 nM.

The subject of the next experiment is eosinophils in the bronchoalveolar lavage fluid. Kind of experiment: Protease-mediated mouse model of asthma. The class given is in vivo. Particulars: 10 mg/kg i.p., 30 minutes prior to ovalbumin challenge at day 14, P<0.01 vs vehicle. The procedure:
[…][…] antagonists were tested in vivo in a protease-mediated mouse model of asthma and found to be effective in reducing the presence of eosinophils in the bronchoalveolar lavage fluid. The animals were first sensitized with ovalbumin/Aspergillus oryzae extract on days 0 and 7. Antagonists were injected i.p. at a dose of 10 mg/kg, 30 minutes prior to an ovalbumin challenge at day 14. […] Both […][…] antagonist effects were statistically significant (P<0.01) compared to vehicle control.
As for `O=C(O)c1cc(-c2ccc(C3CCNCC3)cc2)c2ccc(-c3ccc(C(F)(F)F)cc3)cc2c1` [Compound 1], the “eosinophils in the bronchoalveolar lavage fluid, normalized and compared to vehicle (100±15%)” value stood at 43.9±12.8%. Regarding `NCCCNC(=O)c1ccc(-c2cc(C(=O)O)cc(-n3cc(-c4ccc(C(F)(F)F)cc4)nn3)c2)s1` [Compound 23], the “eosinophils in the bronchoalveolar lavage fluid, normalized and compared to vehicle (100±15%)” value was 40.3±11.0%.

Values taken from patent US11584736B2, “Heterocyclic P2Y14 receptor antagonists” (The United States of America, as represented by the …, priority 2018, dated 2023).
